We go through five compounds from ChEMBL document CHEMBL1150976, “The selectivity of protein kinase inhibitors: a further update” (Biochem J, 2007).

The target in assay [1] is T1, Serine/threonine-protein kinase BRSK2 (Homo sapiens) (UniProt Q8IWQ3).
T1 sequence (whole entry): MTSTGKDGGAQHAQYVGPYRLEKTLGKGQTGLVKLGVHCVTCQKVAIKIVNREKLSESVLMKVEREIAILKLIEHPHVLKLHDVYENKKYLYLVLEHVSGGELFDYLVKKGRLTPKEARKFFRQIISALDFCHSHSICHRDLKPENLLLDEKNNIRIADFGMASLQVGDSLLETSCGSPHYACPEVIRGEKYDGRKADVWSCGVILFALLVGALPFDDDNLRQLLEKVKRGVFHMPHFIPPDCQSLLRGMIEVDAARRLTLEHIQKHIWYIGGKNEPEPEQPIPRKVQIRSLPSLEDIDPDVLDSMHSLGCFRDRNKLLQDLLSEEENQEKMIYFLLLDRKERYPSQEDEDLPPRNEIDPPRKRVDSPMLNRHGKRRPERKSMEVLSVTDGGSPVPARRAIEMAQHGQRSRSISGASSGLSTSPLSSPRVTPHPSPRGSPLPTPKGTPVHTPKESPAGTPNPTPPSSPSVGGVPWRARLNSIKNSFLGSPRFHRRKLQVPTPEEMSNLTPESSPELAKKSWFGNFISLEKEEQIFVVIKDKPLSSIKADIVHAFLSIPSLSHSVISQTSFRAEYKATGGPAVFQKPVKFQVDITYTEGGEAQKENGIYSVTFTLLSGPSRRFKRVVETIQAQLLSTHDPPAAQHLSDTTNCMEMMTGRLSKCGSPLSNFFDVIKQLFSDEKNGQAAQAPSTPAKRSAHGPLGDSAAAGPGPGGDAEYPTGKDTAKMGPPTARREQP
Kind of assay: Percentage BRSK2 activity remaining in the presence of 0.01uM inhibitor.

Assay [2] addresses Mitogen-activated protein kinase 10 (Homo sapiens) (UniProt P53779). Kind of assay: Percentage JNK3 activity remaining in the presence of 25uM inhibitor.
Assay [3] addresses Serine/threonine-protein kinase PAK 5 (Homo sapiens) (UniProt Q9P286). Kind of assay: Percentage PAK5 activity remaining in the presence of 25uM inhibitor.
Assay [4] deals with T2, Dual specificity tyrosine-phosphorylation-regulated kinase 3 (Homo sapiens) (UniProt O43781).
T2 sequence (whole entry): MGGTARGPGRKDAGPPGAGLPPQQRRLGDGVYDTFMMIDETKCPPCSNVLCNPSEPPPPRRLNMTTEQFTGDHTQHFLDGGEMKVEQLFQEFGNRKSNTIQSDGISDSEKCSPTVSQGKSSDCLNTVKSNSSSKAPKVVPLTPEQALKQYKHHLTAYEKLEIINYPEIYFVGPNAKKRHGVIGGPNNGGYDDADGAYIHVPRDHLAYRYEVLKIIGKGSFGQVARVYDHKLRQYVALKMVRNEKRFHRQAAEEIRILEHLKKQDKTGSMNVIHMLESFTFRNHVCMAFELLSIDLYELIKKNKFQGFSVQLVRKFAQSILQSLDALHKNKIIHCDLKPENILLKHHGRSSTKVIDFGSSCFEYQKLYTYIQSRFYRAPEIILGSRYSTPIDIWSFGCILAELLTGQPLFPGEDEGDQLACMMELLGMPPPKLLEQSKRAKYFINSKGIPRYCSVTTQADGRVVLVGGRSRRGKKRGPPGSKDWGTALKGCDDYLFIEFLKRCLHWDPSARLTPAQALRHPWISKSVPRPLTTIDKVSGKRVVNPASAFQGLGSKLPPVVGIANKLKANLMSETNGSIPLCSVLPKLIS
Kind of assay: Percentage DYRK3 activity remaining in the presence of 25uM inhibitor.

The species entered for the next assay is Rattus norvegicus. Kind of assay: Percentage AMPK activity remaining in the presence of 25uM inhibitor.
The target of assay [5] is T3, Mitogen-activated protein kinase 15 (Homo sapiens) (UniProt Q8TD08).
T3 sequence (whole entry): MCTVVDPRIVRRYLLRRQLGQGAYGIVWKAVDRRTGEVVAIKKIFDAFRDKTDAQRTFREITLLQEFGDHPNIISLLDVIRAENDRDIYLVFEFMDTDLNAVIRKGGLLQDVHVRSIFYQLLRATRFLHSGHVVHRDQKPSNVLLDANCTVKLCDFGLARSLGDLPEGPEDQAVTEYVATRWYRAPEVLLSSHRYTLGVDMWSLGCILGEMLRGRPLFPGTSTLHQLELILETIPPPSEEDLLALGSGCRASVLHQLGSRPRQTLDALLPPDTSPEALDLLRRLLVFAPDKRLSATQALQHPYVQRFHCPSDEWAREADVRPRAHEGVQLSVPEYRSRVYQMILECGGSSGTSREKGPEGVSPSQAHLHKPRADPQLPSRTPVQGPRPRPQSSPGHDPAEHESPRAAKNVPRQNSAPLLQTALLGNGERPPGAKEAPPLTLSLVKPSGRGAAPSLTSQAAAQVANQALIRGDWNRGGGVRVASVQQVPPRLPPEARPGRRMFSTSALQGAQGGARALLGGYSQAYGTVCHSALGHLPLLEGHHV
Kind of assay: Percentage ERK8 activity remaining in the presence of 25uM inhibitor.

Assay [6] addresses T4, Protein kinase C zeta type (Homo sapiens) (UniProt Q05513).
T4 sequence (whole entry): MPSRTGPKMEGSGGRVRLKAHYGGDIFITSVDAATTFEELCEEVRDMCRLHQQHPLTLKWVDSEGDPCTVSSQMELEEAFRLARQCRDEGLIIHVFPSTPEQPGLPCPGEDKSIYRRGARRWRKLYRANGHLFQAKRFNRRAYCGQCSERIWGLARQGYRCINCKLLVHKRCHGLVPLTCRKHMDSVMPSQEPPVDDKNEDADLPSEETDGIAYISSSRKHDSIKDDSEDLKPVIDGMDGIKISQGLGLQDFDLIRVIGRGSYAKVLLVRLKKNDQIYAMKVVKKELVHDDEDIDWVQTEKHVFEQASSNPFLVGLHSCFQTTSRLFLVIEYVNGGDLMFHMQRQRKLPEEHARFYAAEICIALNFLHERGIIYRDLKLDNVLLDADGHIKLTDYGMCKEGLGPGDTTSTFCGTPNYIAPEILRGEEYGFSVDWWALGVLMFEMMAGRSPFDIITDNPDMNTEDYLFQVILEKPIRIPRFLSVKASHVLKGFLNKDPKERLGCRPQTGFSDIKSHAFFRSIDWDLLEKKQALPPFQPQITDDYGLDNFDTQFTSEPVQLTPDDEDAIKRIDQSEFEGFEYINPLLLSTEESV
Kind of assay: Percentage PKCzeta activity remaining in the presence of 25uM inhibitor.

For assay [7], the target named is Casein kinase I isoform delta (Homo sapiens, UniProt P48730). Kind of assay: Percentage CK1delta activity remaining in the presence of 25uM inhibitor. Conditions: filed as antagonist.
For assay [8], the target named is Serine/threonine-protein kinase pim-1 (Homo sapiens, UniProt P11309). Kind of assay: Percentage PIM1 activity remaining in the presence of 25uM inhibitor. Conditions: filed as antagonist.
Assay [9] concerns the target Mitogen-activated protein kinase 3 (Homo sapiens) (UniProt P27361). Kind of assay: Percentage ERK1 activity remaining in the presence of 25uM inhibitor.

Mitogen-activated protein kinase 10 (Homo sapiens), sequence (P53779 whole entry): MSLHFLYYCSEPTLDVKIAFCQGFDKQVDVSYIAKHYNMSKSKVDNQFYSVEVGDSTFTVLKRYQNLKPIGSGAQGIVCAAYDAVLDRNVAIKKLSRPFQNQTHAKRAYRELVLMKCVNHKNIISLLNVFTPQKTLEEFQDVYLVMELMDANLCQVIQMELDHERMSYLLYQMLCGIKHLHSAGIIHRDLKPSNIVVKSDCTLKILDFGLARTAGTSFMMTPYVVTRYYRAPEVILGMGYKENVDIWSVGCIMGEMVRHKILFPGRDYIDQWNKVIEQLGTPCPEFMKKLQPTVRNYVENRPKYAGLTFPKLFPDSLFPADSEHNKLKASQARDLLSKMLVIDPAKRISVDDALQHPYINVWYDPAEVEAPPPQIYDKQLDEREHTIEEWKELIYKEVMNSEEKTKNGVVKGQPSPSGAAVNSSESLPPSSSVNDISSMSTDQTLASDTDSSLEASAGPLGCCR
Serine/threonine-protein kinase PAK 5 (Homo sapiens), sequence (Q9P286 whole entry, looked up): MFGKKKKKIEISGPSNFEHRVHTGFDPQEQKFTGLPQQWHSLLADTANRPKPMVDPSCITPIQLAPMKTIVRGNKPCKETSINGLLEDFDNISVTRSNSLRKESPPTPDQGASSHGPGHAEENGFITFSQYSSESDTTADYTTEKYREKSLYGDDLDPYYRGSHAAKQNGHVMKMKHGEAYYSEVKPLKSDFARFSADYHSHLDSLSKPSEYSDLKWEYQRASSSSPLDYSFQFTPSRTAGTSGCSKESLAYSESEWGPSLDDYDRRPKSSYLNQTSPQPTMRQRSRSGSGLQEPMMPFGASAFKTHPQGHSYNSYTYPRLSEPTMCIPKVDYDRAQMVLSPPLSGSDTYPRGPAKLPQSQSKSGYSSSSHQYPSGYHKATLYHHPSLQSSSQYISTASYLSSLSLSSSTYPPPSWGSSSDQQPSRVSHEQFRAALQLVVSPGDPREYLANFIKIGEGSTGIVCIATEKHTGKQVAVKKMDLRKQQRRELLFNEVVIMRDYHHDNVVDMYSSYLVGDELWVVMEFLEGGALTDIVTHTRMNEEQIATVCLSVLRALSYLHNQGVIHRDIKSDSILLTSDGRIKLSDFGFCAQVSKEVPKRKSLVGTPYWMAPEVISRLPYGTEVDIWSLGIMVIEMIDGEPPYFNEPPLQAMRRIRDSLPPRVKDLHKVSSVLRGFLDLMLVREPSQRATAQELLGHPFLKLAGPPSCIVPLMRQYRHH
Serine/threonine-protein kinase pim-1, sequence (P11309 whole entry, looked up): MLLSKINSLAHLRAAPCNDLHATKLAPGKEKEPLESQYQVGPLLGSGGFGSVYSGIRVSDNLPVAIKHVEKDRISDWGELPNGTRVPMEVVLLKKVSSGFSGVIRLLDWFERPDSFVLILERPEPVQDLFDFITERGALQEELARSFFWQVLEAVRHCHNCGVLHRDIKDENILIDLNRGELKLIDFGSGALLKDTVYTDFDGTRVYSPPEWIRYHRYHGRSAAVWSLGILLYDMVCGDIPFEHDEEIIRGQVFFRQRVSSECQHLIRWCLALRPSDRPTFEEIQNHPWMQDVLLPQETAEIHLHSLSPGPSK
Mitogen-activated protein kinase 3 (Homo sapiens), sequence (P27361 whole entry): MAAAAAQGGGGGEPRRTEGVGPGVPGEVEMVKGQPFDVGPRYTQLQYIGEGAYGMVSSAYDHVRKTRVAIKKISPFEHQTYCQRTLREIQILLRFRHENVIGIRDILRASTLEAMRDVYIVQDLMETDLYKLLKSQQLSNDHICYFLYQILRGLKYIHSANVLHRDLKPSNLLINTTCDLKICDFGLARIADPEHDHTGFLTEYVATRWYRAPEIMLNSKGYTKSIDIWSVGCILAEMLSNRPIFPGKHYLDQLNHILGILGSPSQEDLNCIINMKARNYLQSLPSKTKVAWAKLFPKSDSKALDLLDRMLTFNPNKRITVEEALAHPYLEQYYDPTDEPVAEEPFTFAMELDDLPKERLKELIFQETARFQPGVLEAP
Casein kinase I isoform delta, sequence (P48730 whole entry, looked up, canonical isoform): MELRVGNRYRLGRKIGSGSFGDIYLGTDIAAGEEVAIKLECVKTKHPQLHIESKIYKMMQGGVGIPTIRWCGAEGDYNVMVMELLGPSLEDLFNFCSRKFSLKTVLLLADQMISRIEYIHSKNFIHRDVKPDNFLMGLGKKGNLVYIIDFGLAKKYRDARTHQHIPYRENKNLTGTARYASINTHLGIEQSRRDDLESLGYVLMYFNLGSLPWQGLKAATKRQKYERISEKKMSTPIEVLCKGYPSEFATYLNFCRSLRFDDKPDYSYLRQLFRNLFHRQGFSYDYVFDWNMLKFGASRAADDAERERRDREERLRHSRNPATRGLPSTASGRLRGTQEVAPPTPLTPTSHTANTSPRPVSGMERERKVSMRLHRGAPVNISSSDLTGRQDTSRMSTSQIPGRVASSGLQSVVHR

Take `O=C(NCCCNc1nc(Nc2cccc(NC(=O)N3CCCC3)c2)ncc1I)c1cccs1`: the Activity in assay [1] is 92%.
Consider `COc1cc(OC)c(/C=C2/C(=O)Nc3ccccc32)c(OC)c1`, for which the Activity came out at 93% in assay [2]; 84% in [3]; 89% in [4]; 71% in the assay filed under Rattus norvegicus; 68% in [5]; 80% in [6]. Also, the Activity in [7] was 9%; in [8], 43%; in [9], 91%.
Turning to `CN[C@@H]1C[C@H]2O[C@@](C)([C@@H]1OC)n1c3ccccc3c3c4c(c5c6ccccc6n2c5c31)C(=O)N[C@H]4O` (stereo in doubt), the Activity in [1] (filed as antagonist) was 27%.
As to `NCCNS(=O)(=O)c1ccc(Cl)c2ccncc12`, the Activity was 103% in assay [2]; 86% in assay [3]; 46% in [4] (filed as antagonist); 29% in the assay listed under Rattus norvegicus (filed as antagonist); 29% in [5] (filed as antagonist); 52% in assay [6]. The Activity was 12% in [7], 28% in assay [8] and 102% in [9].
Regarding `Cc1n[nH]c2ccc(-c3cncc(OC[C@@H](N)Cc4c[nH]c5ccccc45)c3)cc12`, the Activity in assay [1] stood at 88%.
